Test results taken from article PMC4890880 (ACS infectious diseases, 2016).
Where two headings read alike, the source gives them in different places.

Tests used:
[1] = test system: HepG2-A16-CD81EGFP cells; conditions: for IC50: read-out: Tox_IC50, HepG2 cytotoxicity
[2] = test system: Plasmodium berghei (Pb-Luc) exoerythrocytic-stage parasites; conditions: for normalized signal at 0.000508053 (first series): concentration 0.000508053, first replicate series; for normalized signal at 0.000508053 (first series) / normalized signal at 0.000508053 (second series) / normalized signal at 0.00152416 (first series) / normalized signal at 0.00152416 (second series) / normalized signal at 0.00457247 (first series) / normalized signal at 0.00457247 (second series) / normalized signal at 0.0137174 (first series) / normalized signal at 0.0137174 (second series) / normalized signal at 0.0411523 (first series) / normalized signal at 0.0411523 (second series) / normalized signal at 0.123457 (first series) / normalized signal at 0.123457 (second series) / normalized signal at 0.37037 (first series) / normalized signal at 0.37037 (second series) / normalized signal at 1.11111 (first series) / normalized signal at 1.11111 (second series) / normalized signal at 3.33333 (first series) / normalized signal at 3.33333 (second series) / normalized signal at 10 (first series) / normalized signal at 10 (second series): fraction of control; for normalized signal at 0.000508053 (second series): concentration 0.000508053, second replicate series; for normalized signal at 0.00152416 (first series): concentration 0.00152416, first replicate series; for normalized signal at 0.00152416 (second series): concentration 0.00152416, second replicate series; for normalized signal at 0.00457247 (first series): concentration 0.00457247, first replicate series; for normalized signal at 0.00457247 (second series): concentration 0.00457247, second replicate series; for normalized signal at 0.0137174 (first series): concentration 0.0137174, first replicate series; for normalized signal at 0.0137174 (second series): concentration 0.0137174, second replicate series; for normalized signal at 0.0411523 (first series): concentration 0.0411523, first replicate series; for normalized signal at 0.0411523 (second series): concentration 0.0411523, second replicate series; for normalized signal at 0.123457 (first series): concentration 0.123457, first replicate series; for normalized signal at 0.123457 (second series): concentration 0.123457, second replicate series; for normalized signal at 0.37037 (first series): concentration 0.37037, first replicate series; for normalized signal at 0.37037 (second series): concentration 0.37037, second replicate series; for normalized signal at 1.11111 (first series): concentration 1.11111, first replicate series; for normalized signal at 1.11111 (second series): concentration 1.11111, second replicate series; for normalized signal at 3.33333 (first series): concentration 3.33333, first replicate series; for normalized signal at 3.33333 (second series): concentration 3.33333, second replicate series; for normalized signal at 10 (first series): concentration 10, first replicate series; for normalized signal at 10 (second series): concentration 10, second replicate series; for IC50: read-out: PbLuc_IC50; for normalised signal at concentration 10 (first series): concentration 10, first series of dose columns; for normalised signal at concentration 10 (second series): concentration 10, second series of dose columns
[3] = 2nd round, maximal inhibition in dose series
[4] = 2nd round, Broad DOS compounds, unit not printed (dose series head 10 to 0.000508053)
[5] = sheet "2nd round", Broad compounds, dose response top concentration 10

COc1ccc(NC(=O)N(C)C[C@H]2Oc3c(NC(=O)CCCCCC(=O)Nc4ccccc4N)cccc3C(=O)N([C@H](C)CO)C[C@H]2C)cc1 [BRD-K75018854-001-01-2]
Tox_max_inhibition (%) [1, 3]: 8%
IC50 ([1]; 2nd round, unit inferred): > 10 µM
PbLuc_max_inhibition (%) [2, 3]: 27%
normalized signal at 0.000508053 (first series) [2]: 1.05
normalized signal at 0.000508053 (second series) [2]: 0.8619
normalized signal at 0.00152416 (first series) [2]: 0.9022
normalized signal at 0.00152416 (second series) [2]: 0.7297
normalized signal at 0.00457247 (first series) [2]: 1.1676
normalized signal at 0.00457247 (second series) [2]: 0.8627
normalized signal at 0.0137174 (first series) [2]: 0.9808
normalized signal at 0.0137174 (second series) [2]: 0.929
normalized signal at 0.0411523 (first series) [2]: 1.1704
normalized signal at 0.0411523 (second series) [2]: 0.8231
normalized signal at 0.123457 (first series) [2]: 1.053
normalized signal at 0.123457 (second series) [2]: 1.0322
normalized signal at 0.37037 (first series) [2]: 0.9438
normalized signal at 0.37037 (second series) [2]: 0.8176
normalized signal at 1.11111 (first series) [2]: 0.9278
normalized signal at 1.11111 (second series) [2]: 0.8826
normalized signal at 3.33333 (first series) [2]: 1.001
normalized signal at 3.33333 (second series) [2]: 1.022
normalized signal at 10 (first series) [2]: 0.9917
normalized signal at 10 (second series) [2]: 1.205
IC50 [2, 4]: > 10 µM

O=C(Nc1ccccc1F)N1CCCCN2[C@@H](CO)[C@@H](c3ccc(/C=C/c4ccccc4)cc3)[C@@H]2C1 [BRD-K75724375-001-01-5]
IC50 ([1]; sheet "2nd round"): > 10 µM
Tox_max_inhibition (%) ([1]; sheet "2nd round"): 3.77%
normalised signal at concentration 0.000508053 (first series) [2]: 0.9105
normalised signal at concentration 0.000508053 (second series) [2]: 0.9278
normalised signal at concentration 0.00152416 (first series) [2]: 1.073
normalised signal at concentration 0.00152416 (second series) [2]: 0.9037
normalised signal at concentration 0.00457247 (first series) [2]: 0.819
normalised signal at concentration 0.00457247 (second series) [2]: 0.9578
normalised signal at concentration 0.0137174 (first series) [2]: 0.8286
normalised signal at concentration 0.0137174 (second series) [2]: 0.9852
normalised signal at concentration 0.0411523 (first series) [2]: 0.8408
normalised signal at concentration 0.0411523 (second series) [2]: 0.7698
normalised signal at concentration 0.123457 (first series) [2]: 0.9337
normalised signal at concentration 0.123457 (second series) [2]: 1.085
normalised signal at concentration 0.37037 (first series) [2]: 0.7789
normalised signal at concentration 0.37037 (second series) [2]: 1.01
normalised signal at concentration 1.11111 (first series) [2]: 1.025
normalised signal at concentration 1.11111 (second series) [2]: 0.8416
normalised signal at concentration 3.33333 (first series) [2]: 0.8686
normalised signal at concentration 3.33333 (second series) [2]: 0.672
normalised signal at concentration 10 (first series) [2]: 0.5018
normalised signal at concentration 10 (second series) [2]: 0.4819
IC50 [2, 5]: > 10 µM
PbLuc_max_inhibition (%) ([2]; sheet "2nd round"): 52%

C[C@@H]1CN([C@H](C)CO)C(=O)c2ccccc2-c2ccccc2CO[C@H]1CN(C)C(=O)[C@H](Cc1ccccc1)N(C)C [BRD-K75961033-001-01-7]
Tox_max_inhibition (%) [1, 3]: 5.71%
IC50 ([1]; 2nd round, unit inferred): > 10 µM
PbLuc_max_inhibition (%) [2, 3]: 45%
normalized signal at 0.000508053 (first series) [2]: 1.06
normalized signal at 0.000508053 (second series) [2]: 0.8091
normalized signal at 0.00152416 (first series) [2]: 0.9571
normalized signal at 0.00152416 (second series) [2]: 0.6896
normalized signal at 0.00457247 (first series) [2]: 0.9675
normalized signal at 0.00457247 (second series) [2]: 0.699
normalized signal at 0.0137174 (first series) [2]: 1.117
normalized signal at 0.0137174 (second series) [2]: 0.795
normalized signal at 0.0411523 (first series) [2]: 0.9735
normalized signal at 0.0411523 (second series) [2]: 0.8267
normalized signal at 0.123457 (first series) [2]: 0.9249
normalized signal at 0.123457 (second series) [2]: 0.6648
normalized signal at 0.37037 (first series) [2]: 0.9974
normalized signal at 0.37037 (second series) [2]: 0.9501
normalized signal at 1.11111 (first series) [2]: 1.014
normalized signal at 1.11111 (second series) [2]: 0.8135
normalized signal at 3.33333 (first series) [2]: 0.9327
normalized signal at 3.33333 (second series) [2]: 0.5506
normalized signal at 10 (first series) [2]: 0.7489
normalized signal at 10 (second series) [2]: 0.6892
IC50 [2, 4]: > 10 µM

C[C@@H]1CCCCO[C@H](CN(C)S(=O)(=O)c2ccc(F)cc2)[C@H](C)CN([C@H](C)CO)C(=O)c2cc(N(C)C)ccc2O1 [BRD-K77041516-001-01-2]
IC50 ([1]; sheet "2nd round"): > 10 µM
Tox_max_inhibition (%) ([1]; sheet "2nd round"): 4.38%
normalised signal at concentration 0.000508053 (first series) [2]: 1.187
normalised signal at concentration 0.000508053 (second series) [2]: 0.9225
normalised signal at concentration 0.00152416 (first series) [2]: 0.8332
normalised signal at concentration 0.00152416 (second series) [2]: 0.8694
normalised signal at concentration 0.00457247 (first series) [2]: 0.9468
normalised signal at concentration 0.00457247 (second series) [2]: 0.8206
normalised signal at concentration 0.0137174 (first series) [2]: 0.8125
normalised signal at concentration 0.0137174 (second series) [2]: 0.9272
normalised signal at concentration 0.0411523 (first series) [2]: 0.9511
normalised signal at concentration 0.0411523 (second series) [2]: 0.9568
normalised signal at concentration 0.123457 (first series) [2]: 1.006
normalised signal at concentration 0.123457 (second series) [2]: 0.7947
normalised signal at concentration 0.37037 (first series) [2]: 0.8766
normalised signal at concentration 0.37037 (second series) [2]: 1.201
normalised signal at concentration 1.11111 (first series) [2]: 1.15
normalised signal at concentration 1.11111 (second series) [2]: 1.082
normalised signal at concentration 3.33333 (first series) [2]: 0.9005
normalised signal at concentration 3.33333 (second series) [2]: 1.135
normalised signal at concentration 10 (first series) [2]: 0.8572
normalised signal at concentration 10 (second series) [2]: 0.9617
IC50 [2, 5]: > 10 µM
PbLuc_max_inhibition (%) ([2]; sheet "2nd round"): 21%

C[C@@H]1CCCCO[C@H](CN(C)S(=O)(=O)c2ccc(F)cc2)[C@H](C)CN([C@@H](C)CO)C(=O)c2cc(N(C)C)ccc2O1 [BRD-K77718491-001-01-4]
IC50 ([1]; sheet "2nd round"): > 10 µM
Tox_max_inhibition (%) ([1]; sheet "2nd round"): 7%
normalised signal at concentration 0.000508053 (first series) [2]: 0.8436
normalised signal at concentration 0.000508053 (second series) [2]: 0.9419
normalised signal at concentration 0.00152416 (first series) [2]: 1.131
normalised signal at concentration 0.00152416 (second series) [2]: 0.8322
normalised signal at concentration 0.00457247 (first series) [2]: 0.8284
normalised signal at concentration 0.00457247 (second series) [2]: 0.9071
normalised signal at concentration 0.0137174 (first series) [2]: 1.006
normalised signal at concentration 0.0137174 (second series) [2]: 0.921
normalised signal at concentration 0.0411523 (first series) [2]: 0.8082
normalised signal at concentration 0.0411523 (second series) [2]: 0.9497
normalised signal at concentration 0.123457 (first series) [2]: 0.9873
normalised signal at concentration 0.123457 (second series) [2]: 0.8645
normalised signal at concentration 0.37037 (first series) [2]: 0.8615
normalised signal at concentration 0.37037 (second series) [2]: 0.9228
normalised signal at concentration 1.11111 (first series) [2]: 0.9968
normalised signal at concentration 1.11111 (second series) [2]: 0.8769
normalised signal at concentration 3.33333 (first series) [2]: 0.7967
normalised signal at concentration 3.33333 (second series) [2]: 1.06
normalised signal at concentration 10 (first series) [2]: 0.9825
normalised signal at concentration 10 (second series) [2]: 0.8275
IC50 [2, 5]: > 10 µM
PbLuc_max_inhibition (%) ([2]; sheet "2nd round"): 20%
